Structures can show the parent of a compound that is named as a salt.

19 compounds from patent EP4722213A1, “NITROGEN-CONTAINING FUNCTIONAL GROUP-SUBSTITUTED PYRIDAZINOPYRIDONE DERIVATIVE AND USE THEREOF” (Sichuan Huiyu Pharmaceutical Co., Ltd., priority 2023, dated 2024) can be followed below.

The target in this test is T1, SOS1 (Homo sapiens, UniProt Q07889).
T1 sequence (Q07889 1-1333): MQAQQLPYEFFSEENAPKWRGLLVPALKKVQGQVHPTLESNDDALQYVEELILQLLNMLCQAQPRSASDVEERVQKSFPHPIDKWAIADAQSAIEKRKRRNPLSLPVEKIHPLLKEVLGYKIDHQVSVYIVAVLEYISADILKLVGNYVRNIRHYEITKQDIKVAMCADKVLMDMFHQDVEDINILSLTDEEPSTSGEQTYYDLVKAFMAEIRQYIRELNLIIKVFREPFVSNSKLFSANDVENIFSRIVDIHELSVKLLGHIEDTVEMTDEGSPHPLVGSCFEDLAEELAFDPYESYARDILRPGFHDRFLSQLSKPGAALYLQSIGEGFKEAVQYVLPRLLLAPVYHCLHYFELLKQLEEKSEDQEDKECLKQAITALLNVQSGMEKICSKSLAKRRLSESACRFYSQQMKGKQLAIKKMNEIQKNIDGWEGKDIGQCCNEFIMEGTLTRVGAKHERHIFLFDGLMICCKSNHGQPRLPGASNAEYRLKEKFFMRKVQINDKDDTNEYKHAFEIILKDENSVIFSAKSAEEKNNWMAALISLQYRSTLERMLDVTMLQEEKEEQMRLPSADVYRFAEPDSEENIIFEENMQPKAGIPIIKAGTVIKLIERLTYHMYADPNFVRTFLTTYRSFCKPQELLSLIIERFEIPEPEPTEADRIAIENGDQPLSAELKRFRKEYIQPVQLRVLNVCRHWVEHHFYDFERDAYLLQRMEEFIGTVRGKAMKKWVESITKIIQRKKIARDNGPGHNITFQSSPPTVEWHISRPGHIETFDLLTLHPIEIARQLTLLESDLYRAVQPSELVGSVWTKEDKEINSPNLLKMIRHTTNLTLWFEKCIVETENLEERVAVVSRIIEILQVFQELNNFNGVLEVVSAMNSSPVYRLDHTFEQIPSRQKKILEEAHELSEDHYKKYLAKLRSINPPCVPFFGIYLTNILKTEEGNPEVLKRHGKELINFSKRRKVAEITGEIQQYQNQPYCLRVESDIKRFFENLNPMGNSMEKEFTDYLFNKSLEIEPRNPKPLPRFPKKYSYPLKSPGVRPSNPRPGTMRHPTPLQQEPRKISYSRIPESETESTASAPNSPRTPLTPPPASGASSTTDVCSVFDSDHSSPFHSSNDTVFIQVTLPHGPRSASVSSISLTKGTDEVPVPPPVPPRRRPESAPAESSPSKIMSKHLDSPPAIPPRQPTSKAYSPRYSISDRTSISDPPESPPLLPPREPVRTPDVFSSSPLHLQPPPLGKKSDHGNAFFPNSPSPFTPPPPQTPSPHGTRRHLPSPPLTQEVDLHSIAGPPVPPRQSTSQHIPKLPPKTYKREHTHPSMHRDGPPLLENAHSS
Description: biochemical.
In general, IC50 refers to the midpoint of a concentration-inhibition curve. A high value points to lower potency. Turning to `C[C@@H](Nc1nnc(N2CCC(F)(F)CC2)c2cc(=O)n(C3(C)CC3)cc12)c1cccc(C(F)F)c1F` [Example 23, (R)-4-((1-(3-(difluoromethyl)-2-fluorophenyl)ethyl)amino)-1-(4,4-difluoropiperidin-1-yl)-6-(1-methylcyclopropyl) pyrido[3,4-d]pyridazin-7(6H)-one], half-maximal inhibition (IC50) was put at 22.4 nM. As for `C[C@@H](Nc1nnc(N2CC3(CCOCC3)C2)c2cc(=O)n(C3(C)CC3)cc12)c1cccc(C(F)F)c1F` [Example 182, (R)-4-((1-(3-(difluoromethyl)-2-fluorophenyl)ethyl)amino)-6-(1-methylcyclopropyl)-1-(7-oxa-2-azaspiro[3.5]nonan-2-yl)pyrido[3,4-d]pyridazin-7(6H)-one], the figure is 5 nM. For the compound `C[C@@H](Nc1nnc(N2CCN(C)CC2)c2cc(=O)n(N3CC4CCCC4C3)cc12)c1cccc(C(F)F)c1F` (stereo partly drawn) [Example 136, 4-(((R)-1-(3-(difluoromethyl)-2-fluorophenyl)ethyl)amino)-6-(hexahydrocyclopenta[c]pyrrol-2(1H)-yl)-1-(4-methylpiperazin-1-yl)pyrido[3,4-d]pyridazin-7(6H)-one formate], half-maximal inhibition (IC50) required 6.2 nM. The compound `C[C@@H](Nc1nnc(NN2CCN(C)CC2)c2cc(=O)n(C3(C)CC3)cc12)c1cccc(C(F)(F)F)c1` [Example 159, (R)-6-(1-methylcyclopropyl)-1-((4-methylpiperazin-1-yl)amino)-4-((1-(3-(trifluoromethyl)phenyl)ethyl)amino)pyr ido[3,4-d]pyridazin-7(6H)-one formate] had a concentration for half-maximal inhibition (IC50) of 6.4 nM.

`Cc1c(C#N)cccc1[C@@H](C)Nc1nnc(N2CCN(C)CC2)c2cc(=O)n(C3(C)CC3)cc12` [Example 82, (R)-2-methyl-3-(1-((6-(1-methylcyclopropyl)-1-(4-methylpiperazin-1-yl)-7-oxo-6,7-dihydropyrido[3,4-d]pyridazin-4-yl)amino)ethyl)benzonitrile] registered a half-inhibitory concentration (IC50) of 9 nM. `C[C@@H](Nc1nnc(-n2ccnc2)c2cc(=O)n(C3CC3)cc12)c1cccc(C(F)F)c1F` [Example 31, (R)-6-cyclopropyl-4-((1-(3-(difluoromethyl)-2-fluorophenyl)ethyl)amino)-1-(1H-imidazol-1-yl)pyrido[3,4-d]pyridazin-7(6H)-one] gave a half-inhibitory concentration (IC50) of 19.5 nM. Regarding `C[C@@H](Nc1nnc(N2CC3(CC(O)C3)C2)c2cc(=O)n(C3(C)CC3)cc12)c1cccc(C(F)F)c1F` [Example 196, (R)-4-((1-(3-(difluoromethyl)-2-fluorophenyl)ethyl)amino)-1-(6-hydroxy-2-azaspiro[3.3]heptan-2-yl)-6-(1-methylcyclopropyl) pyrido[3,4-d]pyridazin-7(6H)-one], the IC50 was 3.7 nM. In turn, `C[C@@H](Nc1nnc(N(C)CCN(C)C)c2cc(=O)n(C3(C)CC3)cc12)c1cccc(C(F)F)c1F` [Example 124, (R)-4-((1-(3-(difluoromethyl)-2-fluorophenyl)ethyl)amino)-1-((2-(dimethylamino)ethyl)(methyl)amino)-6-(1-methylcyclopropyl) pyrido[3,4-d]pyridazin-7(6H)-one formate] gave an IC50 of 5.8 nM. Next, `C[C@@H](Nc1nnc(N2CCN(C3CC3)CC2)c2cc(=O)n(C3(C)CC3)cc12)c1cccc(C(F)(F)F)c1` [Example 181, (R)-1-(4-cyclopropylpiperazin-1-yl)-6-(1-methylcyclopropyl)-4-((1-(3-(trifluoromethyl)phenyl)ethyl)amino)pyr ido[3,4-d]pyridazin-7(6H)-one formate]: 7.8 nM.

Take `C[C@@H](Nc1nnc(N2CC[C@@H](O)C2)c2cc(=O)n(C3(C)CC3)cc12)c1cccc(C(F)F)c1F` [Example 137, 4-(((R)-1-(3-(difluoromethyl)-2-fluorophenyl)ethyl)amino)-1-((R)-3-hydroxypyrrolidin-1-yl)-6-(1-methylcyclopropyl) pyrido[3,4-d]pyridazin-7(6H)-one formate]: the IC50 worked out at 4.8 nM. `Cc1cc(N)cc([C@@H](C)Nc2nnc(N3CCN(C4CCCC4)CC3)c3cc(=O)n(C4CC4)cc23)c1F` [Example 148, (R)-4-((1-(5-amino-2-fluoro-3-methylphenyl)ethyl)amino)-1-(4-cyclopentylpiperazin-1-yl)-6-cyclopropylpyrido[3 ,4-d]pyridazin-7(6H)-one] showed a concentration for half-maximal inhibition (IC50) of 6.5 nM. In turn, `Cc1c([C@@H](C)Nc2nnc(N3CCN(C4CC4)CC3)c3cc(=O)n(C4(C)CC4)cc23)cccc1C(F)(F)F` [Example 92, (R)-1-(4-cyclopropylpiperazin-1-yl)-4-((1-(2-methyl-3-(trifluoromethyl)phenyl)ethyl)amino)-6-(1-methylcyclopropyl) pyrido[3,4-d]pyridazin-7(6H)-one] yielded an IC50 of 10.2 nM. `C[C@@H](Nc1nnc(N2CCN(C)CC2)c2cc(=O)n(C3CCOC3)cc12)c1cccc(C(F)F)c1F` (stereo partly drawn) [Example 127, 4-(((R)-1-(3-(difluoromethyl)-2-fluorophenyl)ethyl)amino)-1-(4-methylpiperazin-1-yl)-6-(tetrahydrofuran-3-yl)pyrido[3,4-d]pyridazin-7(6H)-one]: the half-inhibitory concentration (IC50) amounted to 6.7 nM. In turn, `C[C@@H]1CCCN1c1nnc(N[C@H](C)c2cccc(C(F)F)c2F)c2cn(C3CC3)c(=O)cc12` [Example 25, 6-cyclopropyl-4-(((R)-1-(3-(difluoromethyl)-2-fluorophenyl)ethyl)amino)-1-((R)-2-methylpyrrolidin-1-yl)pyrido[3,4-d]pyridazin-7(6H)-one] gave an IC50 of 12 nM.

In turn, `C[C@@H](Nc1nnc(N2CCC3(C2)CS(=O)(=O)C3)c2cc(=O)n(C3(C)CC3)cc12)c1cccc(C(F)F)c1F` [Example 197, (R)-4-((1-(3-(difluoromethyl)-2-fluorophenyl)ethyl)amino)-1-(2,2-dioxido-2-thia-6-azaspiro[3.4]octan-6-yl)-6-(1-methylcyclopropyl) pyrido[3,4-d]pyridazin-7(6H)-one] yielded an IC50 of 5 nM. Next, `C[C@@H](Nc1nnc(N2CCC3(CCCO3)CC2)c2cc(=O)n(C3(C)CC3)cc12)c1cccc(C(F)F)c1F` [Example 199, (R)-4-((1-(3-(difluoromethyl)-2-fluorophenyl)ethyl)amino)-6-(1-methylcyclopropyl)-1-(1-oxa-8-azaspiro[4.5]decan-8-yl)pyrido[3,4-d]pyridazin-7(6H)-one]: 12.5 nM; `Cc1c([C@@H](C)Nc2nnc(N3CCS(=O)(=O)CC3)c3cc(=O)n(C4CC4)cc23)cccc1C(F)(F)F` [Example 59, (R)-6-cyclopropyl-1-(1,1-dioxidothiomorpholino)-4-((1-(2-methyl-3-(trifluoromethyl)phenyl)ethyl)amino)pyr ido[3,4-d]pyridazin-7(6H)-one]: 27.4 nM; `C[C@@H](Nc1nnc(N2CC(F)(F)C2)c2cc(=O)n(C3(C)CC3)cc12)c1cccc(C(F)F)c1F` [Example 22, (R)-1-(3,3-difluoroazetidin-1-yl)-4-((1-(3-(difluoromethyl)-2-fluorophenyl)ethyl)amino)-6-(1-methylcyclopropyl) pyrido[3,4-d]pyridazin-7(6H)-one]: 16.4 nM. The compound `C[C@@H](Nc1nnc(N2CC3CC3C2)c2cc(=O)n(C3(C)CC3)cc12)c1cccc(C(F)F)c1F` (stereo partly drawn) [Example 21, 1-(3-azabicyclo[3.1.0]hexan-3-yl)-4-(((R)-1-(3-(difluoromethyl)-2-fluorophenyl)ethyl)amino)-6-(1-methylcyclopropyl) pyrido[3,4-d]pyridazin-7(6H)-one] displayed an IC50 of 6.9 nM.
